Reference: patent US8236808B2, “Pyrazine derivatives as ENAC blockers” (Novartis AG, priority 2008, dated 2012)
Counter-ions that a name gives are not always drawn.

Biological target: T1, epithelial sodium channel (ENaC) (Homo sapiens, UniProt P37088+P51168+P51170)
T1 construct: host or cells: primary human bronchial epithelial cells (HBECs), differentiated at the air-liquid interface
T1 sequence (P37088 1-669): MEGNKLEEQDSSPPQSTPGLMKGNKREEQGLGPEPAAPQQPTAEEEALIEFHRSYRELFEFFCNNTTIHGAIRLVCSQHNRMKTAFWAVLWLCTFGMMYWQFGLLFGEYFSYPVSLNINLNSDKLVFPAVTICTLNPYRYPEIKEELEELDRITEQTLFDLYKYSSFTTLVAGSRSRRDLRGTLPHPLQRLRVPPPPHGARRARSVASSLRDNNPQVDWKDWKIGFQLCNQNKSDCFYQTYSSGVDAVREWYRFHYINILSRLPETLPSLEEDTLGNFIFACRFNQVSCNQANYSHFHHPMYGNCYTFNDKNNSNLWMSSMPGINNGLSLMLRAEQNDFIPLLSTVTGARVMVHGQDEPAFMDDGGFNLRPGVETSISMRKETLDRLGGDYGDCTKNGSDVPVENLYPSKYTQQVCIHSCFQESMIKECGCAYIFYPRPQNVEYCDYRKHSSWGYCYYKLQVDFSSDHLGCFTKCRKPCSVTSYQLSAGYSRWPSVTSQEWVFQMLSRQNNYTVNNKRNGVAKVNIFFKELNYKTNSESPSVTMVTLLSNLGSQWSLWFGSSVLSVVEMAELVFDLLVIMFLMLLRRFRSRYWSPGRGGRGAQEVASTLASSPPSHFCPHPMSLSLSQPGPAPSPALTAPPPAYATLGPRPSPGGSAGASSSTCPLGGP
T1 sequence (P51168 1-640): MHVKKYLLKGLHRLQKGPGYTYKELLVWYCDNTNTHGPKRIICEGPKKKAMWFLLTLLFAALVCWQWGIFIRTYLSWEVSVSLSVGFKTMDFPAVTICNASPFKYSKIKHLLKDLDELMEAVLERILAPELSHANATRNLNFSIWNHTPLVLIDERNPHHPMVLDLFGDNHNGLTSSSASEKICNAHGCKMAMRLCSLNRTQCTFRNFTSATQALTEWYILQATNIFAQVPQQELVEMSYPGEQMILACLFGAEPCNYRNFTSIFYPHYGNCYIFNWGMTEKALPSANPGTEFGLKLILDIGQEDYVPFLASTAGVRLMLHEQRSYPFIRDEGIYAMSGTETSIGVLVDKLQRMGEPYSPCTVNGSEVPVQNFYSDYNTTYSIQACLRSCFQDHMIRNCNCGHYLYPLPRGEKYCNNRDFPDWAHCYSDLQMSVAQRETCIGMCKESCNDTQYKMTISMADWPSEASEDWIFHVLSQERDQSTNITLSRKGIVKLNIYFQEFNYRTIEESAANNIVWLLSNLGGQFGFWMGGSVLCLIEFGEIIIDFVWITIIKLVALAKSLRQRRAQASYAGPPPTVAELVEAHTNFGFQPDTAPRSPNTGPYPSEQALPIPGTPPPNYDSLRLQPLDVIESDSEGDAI
T1 sequence (P51170 1-649): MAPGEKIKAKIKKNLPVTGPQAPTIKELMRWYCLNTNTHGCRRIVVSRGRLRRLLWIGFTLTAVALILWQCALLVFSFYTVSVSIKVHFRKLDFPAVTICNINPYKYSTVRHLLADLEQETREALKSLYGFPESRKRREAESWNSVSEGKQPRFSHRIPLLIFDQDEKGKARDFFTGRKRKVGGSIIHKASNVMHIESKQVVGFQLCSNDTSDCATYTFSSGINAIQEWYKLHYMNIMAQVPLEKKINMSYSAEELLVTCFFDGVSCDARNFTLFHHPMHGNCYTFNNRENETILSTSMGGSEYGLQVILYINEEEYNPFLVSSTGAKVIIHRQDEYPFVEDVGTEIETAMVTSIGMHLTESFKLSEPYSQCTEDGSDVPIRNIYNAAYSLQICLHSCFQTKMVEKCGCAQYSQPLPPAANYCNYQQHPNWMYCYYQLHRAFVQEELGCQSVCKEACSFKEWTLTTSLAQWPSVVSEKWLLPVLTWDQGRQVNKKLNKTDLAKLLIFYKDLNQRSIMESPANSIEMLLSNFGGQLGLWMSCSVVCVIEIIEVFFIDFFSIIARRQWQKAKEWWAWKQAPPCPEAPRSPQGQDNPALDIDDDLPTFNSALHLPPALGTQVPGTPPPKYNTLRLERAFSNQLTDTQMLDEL
Test: Short circuit current (ISC) measurements in human bronchial epithelial cells, inhibition of amiloride-sensitive ISC
Assay type: cell-based
Conditions: inhibition of the amiloride-sensitive ISC; HBECs cultured at air-liquid interface, Ussing chamber, compound added to apical chamber
Procedure: Compounds of formula (I), hereinafter referred to alternatively as “agents of the invention”, are useful as pharmaceuticals. In particular, the compounds have good ENaC blocker activity and may be tested in the following assays.
Human Bronchial Epithelial cells (HBECs) (Cambrex) were cultured under air-liquid interface conditions to provide a well differentiated mucociliary phenotype.
HBECs were cultured using a modification of the method described by Gray and colleagues (Gray et al., 1996). Cells were seeded in plastic T-162 flasks and were grown in bronchial epithelial cell growth medium (BEGM; Cambrex) supplemented with bovine pituitary extract (52 μg/mL), hydrocortisone (0.5 μg/mL), human recombinant epidermal growth factor (0.5 ng/mL), epinephrine (0.5 μg/mL), transferrin (10 μg/mL), insulin (5 μg/mL), retinoic acid (0.1 μg/mL), triiodothyronine ([…]), gentamycin (50 μg/mL) and amphotericin B (50 ng/mL). Medium was changed every 48 hours until cells were 90% confluent. Cells were then passaged and seeded (8.25×10^5 cells/insert) on polycarbonate Snapwell inserts (Costar) in differentiation media containing 50% DMEM in BEGM with the same supplements as above but without triiodothyronine and a final retinoic acid concentration of 50 nM (all-trans retinoic acid). Cells were maintained submerged for the first 7 days in culture, after which time they were exposed to an apical air interface for the remainder of the culture period. At this time, media was changed to DMEM:F12 media containing 2% v/v Ultroser G for the remainder of culture. Amphotericin B was removed from all media 3 feeds prior to use in the Ussing Chambers. Cells were used between days 7 and 21 after establishment of the apical-air interface. At all stages of culture, cells were maintained at 37° C. in 5% CO2 in an air incubator.
Snapwell inserts were mounted in Vertical Diffusion Chambers (Costar) and were bathed with continuously gassed Ringer solution (5% CO2 in O2; pH 7.4) maintained at 37° C. containing (in mM): 120 NaCl, 25 NaHCO3, 3.3 KH2PO4, 0.8 K2HPO4, 1.2 CaCl2, 1.2 MgCl2, and 10 glucose. The solution osmolarity was between 280 and 300 mOsmol/kg H2O for all physiological salt solutions used. Cells were voltage clamped to 0 mV (model EVC4000; WPI). RT was measured by applying a 1- or 2-mV pulse at 30-s intervals and calculating RT by Ohm's law. Data were recorded using a PowerLab workstation (ADInstruments).
Test compounds were prepared as a 10 mM stock solution in DMSO (95%). Serial 3-fold dilutions were freshly prepared in an appropriate vehicle (distilled H2O or Ringers solution). The initial concentration was added to the apical chamber as a 1000× concentrate in 5 μL, resulting in a final 1× concentration the 5 mL volume of the Ussing chamber. Subsequent additions of compound were added in a 3.3 μL volume of the 1000× serially diluted stock solution. At the completion of the concentration-response experiment, amiloride (10 μM) was added into the apical chamber to enable the total amiloride-sensitive current to be measured. An amiloride control IC50 was established at the start of each experiment.
Results are expressed as the mean % inhibition of the amiloride-sensitive ISC. Concentration-response curves were plotted and IC50 values generated using GraphPad Prism 3.02. Cell inserts were typically run in duplicate and the IC50 calculated on the mean % inhibition data.

IC50 [nM]	SMILES
250	CCC[C@H](CNC(=O)c1nc(Cl)c(N)nc1N)[N+](C)(C)C [Example 1, ((R)-1-{[(3,5-Diamino-6-chloro-pyrazine-2-carbonyl)-amino]-methyl}-butyl)-trimethyl-ammonium iodide]
20	CCC[C@@H](CNC(=O)c1nc(Cl)c(N)nc1N)[N+](C)(C)C [Example 5, ((S)-1-{[(3,5-Diamino-6-chloro-pyrazine-2-carbonyl)-amino]-methyl}-butyl)-trimethyl-ammonium trifluoroacetate]
3460	C[N+](C)(C)C1(CNC(=O)c2nc(Cl)c(N)nc2N)CCCC1 [Example 9, (1-{[(3,5-Diamino-6-chloro-pyrazine-2-carbonyl)-amino]-methyl}-cyclopentyl)-trimethyl-ammonium iodide]
5320	C[N+]1(C)CCC[C@@H]1CNC(=O)c1nc(Cl)c(N)nc1N [Example 11, (R)-2-{[(3,5-Diamino-6-chloro-pyrazine-2-carbonyl)-amino]-methyl}-1,1-dimethyl-pyrrolidinium iodide]
170	C[N+](C)(C)[C@H](CNC(=O)c1nc(Cl)c(N)nc1N)Cc1ccccc1 [Example 13, {(S)-1-Benzyl-2-[(3,5-diamino-6-chloro-pyrazine-2-carbonyl)-amino]-ethyl}-trimethyl-ammonium iodide]
46	C[N+](C)(C)[C@@H](CCCCNC(=O)CCc1ccc(OCc2ccccc2)cc1)CNC(=O)c1nc(Cl)c(N)nc1N [Example 14, ((S)-5-[3-(4-Benzyloxy-phenyl)-propionylamino]-1-{[(3,5-diamino-6-chloro-pyrazine-2-carbonyl)-amino]-methyl}-pentyl)-trimethyl-ammonium iodide]
52	C[N+](C)(C)[C@@H](CCCCNC(=O)Cc1ccc(OCc2ccccc2)cc1)CNC(=O)c1nc(Cl)c(N)nc1N [Example 15, ((S)-5-[2-(4-Benzyloxy-phenyl)-acetylamino]-1-{[(3,5-diamino-6-chloro-pyrazine-2-carbonyl)-amino]-methyl}-pentyl)-trimethyl-ammonium iodide]
640	C[N+]1(CCNC(=O)c2nc(Cl)c(N)nc2N)CCC(Cc2ccccc2)CC1 (stereo not shown) [Example 16, 4-Benzyl-1-{2-[(3,5-diamino-6-chloro-pyrazine-2-carbonyl)-amino]-ethyl}-1-methyl-piperidinium iodide]
7.5	C=CC[N+](CCCc1ccc(OC)cc1)(CCCc1ccc(OC)cc1)CCNC(=O)c1nc(Cl)c(N)nc1N [Example 17, Allyl-{2-[(3,5-diamino-6-chloro-pyrazine-2-carbonyl)-amino]-ethyl}-bis-[3-(4-methoxy-phenyl)-propyl]-ammonium trifluoroacetate]
37	COc1ccc(CCC[N+](CCCc2ccc(OC)cc2)(CCCc2ccc(OC)cc2)CCNC(=O)c2nc(Cl)c(N)nc2N)cc1 [Example 18, {2-[(3,5-Diamino-6-chloro-pyrazine-2-carbonyl)-amino]-ethyl}-tris-[3-(4-methoxy-phenyl)-propyl]-ammonium trifluoroacetate]
20	CCN(CC)CC[N+](CCCc1ccc(OC)cc1)(CCCc1ccc(OC)cc1)CCNC(=O)c1nc(Cl)c(N)nc1N [Example 19, {2-[(3,5-Diamino-6-chloro-pyrazine-2-carbonyl)-amino]-ethyl}-(2-diethylamino-ethyl)-bis-[3-(4-methoxy-phenyl)-propyl]-ammonium trifluoroacetate]
2	COc1ccc(CCC[N+](C)(CCCc2ccc(OC)cc2)CCNC(=O)c2nc(Cl)c(N)nc2N)cc1 [Example 20, {2-[(3,5-diamino-6-chloro-pyrazine-2-carbonyl)-amino]-ethyl}-bis-[3-(4-methoxy-phenyl)-propyl]-methyl-ammonium trifluoroacetate]
5690	CCC[N+](CCCc1ccc(OC)cc1)(CCCc1ccc(OC)cc1)CCNC(=O)c1nc(Cl)c(N)nc1N [Example 21, {2-[(3,5-Diamino-6-chloro-pyrazine-2-carbonyl)-amino]-ethyl}-bis-[3-(4-methoxy-phenyl)-propyl]-propyl-ammonium trifluoroacetate]
